Tests used:
[1] = Stability of BMS-986142 in human EDTA plasma and processed samples (bioanalytical validation); assay type: physicochemical
Procedure: Method validation was carried out according to the Bristol-Myers Squibb Standard Operating Procedures (SOPs) for chromatographic method validation which conforms to the U.S. FDA’s Good Laboratory Practice (GLP) regulations (21 CFR part 58). The validation experiments included but were not limited to the determination of the lower limit of quantification (LLOQ), specificity, accuracy and precision, recovery, and analyte stability under the expected conditions of sample transfer, sample storage, and sample preparation. The LLOQ of the assay was determined to be 1 ng/mL using six different lots of plasma. No interference from the endogenous components and the internal standard was observed.
The accuracy and precision data for BMS-986142, based on the maximum value from all six QC levels, obtained using one-way ANOVA in Watson are listed in Table 1. The recovery of the analyte from human plasma during extraction was determined at 3 ng/mL and 800 ng/mL for BMS-986142, at 3 ng/mL, 30 ng/mL and 750 ng/mL for methotrexate and 7-hydroxymethotrexate, by comparing the response ratios in human plasma samples spiked with the analyte prior to extraction with those spiked post-extraction. The recovery for BMS-986142 is 89-90%. The recoveries for methotrexate and 7-hydroxymethotrexate are 88-94% and 83-88%, respectively. The room temperature, freeze-thaw, and frozen storage stability of BMS-986142 were evaluated in triplicate or quadruplicate using Low QC, High QC, and Dilution QC. The reinjection integrity was assessed by re-injecting an entire run. The deviations of the mean predicted concentrations of the test samples from the nominal concentrations were used as an indicator of the stability of the analyte.

[2] = system: collagen-induced arthritis model; settings: combined with standard of care agents (e.g., MTX); cited from earlier work
[3] = 19.6 hours at RT in Plasma, Dilution QC 10000.00
[4] = 19.6 hours at RT in Plasma, High QC 800.00
[5] = 19.6 hours at RT in Plasma, Low QC 3.00
[6] = 96 h Processed sample stability, Dilution QC 10000.00
[7] = 96 h Processed sample stability, High QC 800.00
[8] = 96 h Processed sample stability, Low QC 3.00
[9] = 7 days at 5 °C Re-injection integrity, Dilution QC 10000.00
[10] = 7 days at 5 °C Re-injection integrity, High QC 800.00
[11] = 7 days at 5 °C Re-injection integrity, Low QC 3.00
[12] = 327 day at -20 °C in Plasma, Dilution QC 10000.00
[13] = 327 day at -20 °C in Plasma, High QC 800.00
[14] = 327 day at -20 °C in Plasma, Low QC 3.00
[15] = After 4 Freeze-Thaw Cycle in Plasma, Dilution QC 10000.00
[16] = After 4 Freeze-Thaw Cycle in Plasma, High QC 800.00
[17] = After 4 Freeze-Thaw Cycle in Plasma, Low QC 3.00

Compound: Cc1c(-c2c(F)cc(C(N)=O)c3[nH]c4c(c23)CC[C@H](C(C)(C)O)C4)cccc1-n1c(=O)c2cccc(F)c2n(C)c1=O [BMS-986142, 6-fluoro-5-(R)-(3-(S)-(8-fluoro-1-methyl-2,4-dioxo-1,2-dihydroquinazolin-3(4H)-yl)-2-methylphenyl)-2-(S)-(2-hydroxypropan-2-yl)-2,3,4,9-tetrahydro-1H-carbazole-8-carboxamide]
- Stability, %Dev [1, 3]: 3.1%
- Stability, Mean Conc. [1, 3]: 10314.35 ng/mL
- Stability, %Dev [1, 4]: 2.0%
- Stability, Mean Conc. [1, 4]: 816.24 ng/mL
- Stability, %Dev [1, 5]: 8.3%
- Stability, Mean Conc. [1, 5]: 3.25 ng/mL
- Stability, %Dev [1, 6]: -3.3%
- Stability, Mean Conc. [1, 6]: 9666.77 ng/mL
- Stability, %Dev [1, 7]: 1.7%
- Stability, Mean Conc. [1, 7]: 813.52 ng/mL
- Stability, %Dev [1, 8]: 4.0%
- Stability, Mean Conc. [1, 8]: 3.12 ng/mL
- Stability, %Dev [1, 9]: 9.9%
- Stability, Mean Conc. [1, 9]: 10986.50 ng/mL
- Stability, %Dev [1, 10]: 4.7%
- Stability, Mean Conc. [1, 10]: 837.90 ng/mL
- Stability, %Dev [1, 11]: 2.7%
- Stability, Mean Conc. [1, 11]: 3.08 ng/mL
- Stability, %Dev [1, 12]: -4.2%
- Stability, Mean Conc. [1, 12]: 9578.40 ng/mL
- Stability, %Dev [1, 13]: 1.9%
- Stability, Mean Conc. [1, 13]: 815.36 ng/mL
- Stability, %Dev [1, 14]: 5.0%
- Stability, Mean Conc. [1, 14]: 3.15 ng/mL
- Stability, %Dev [1, 15]: -7.6%
- Stability, Mean Conc. [1, 15]: 9241.55 ng/mL
- Stability, %Dev [1, 16]: -5.9%
- Stability, Mean Conc. [1, 16]: 752.66 ng/mL
- Stability, %Dev [1, 17]: -6.3%
- Stability, Mean Conc. [1, 17]: 2.81 ng/mL
- Efficacy against disease endpoints in combination [2]: Added benefit against disease endpoints

From article PMC5423977, “Safety, pharmacokinetics, and pharmacodynamics of BMS-986142, a novel reversible BTK inhibitor, in healthy participants” (European Journal of Clinical Pharmacology, 2017)
